Results as given in patent publication US10391095B2, “DNA-PK inhibitors” (Vertex Pharmaceuticals Incorporated, priority 2012, dated 2019).

target: DNA-PK (Homo sapiens, UniProt P78527); test: DNA-PK inhibition assay (radiometric, 33P-ATP); type: biochemical; conditions: 100 μM ATP, competitive tight-binding fit
How it was run: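 33P transfer from 100 µM ATP to a DNA-PK peptide (0.8 mg/mL) is measured after 45 min, using about 6 nM enzyme activated by 10 µg/mL sheared dsDNA (HEPES pH 7.5, MgCl2, DTT). Filter-bound counts fitted to a competitive tight-binding inhibition model give Ki.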

| SMILES | Ki |
| --- | --- |
| CNC(=O)c1ccnc2c([C@H](C)CNc3cc(-c4ccc(N(C)C5CCN(C)CC5)nc4)ncn3)cccc12 [Compound 634] | < 30 nM |
| CNC(=O)c1ccnc2c([C@H](C)CNc3cc(-c4ccc(C(F)(F)F)nc4)ncn3)cccc12 [Compound 649] | < 30 nM |
| CNC(=O)c1ccnc2c([C@H](C)CNc3cc(-c4cnc(N5CCOCC5)nc4)ncn3)cccc12 [Compound 650] | < 30 nM |
| CNC(=O)c1ccnc2c([C@H](C)CNc3cc(-c4cncc(C)c4)ncn3)ccc(F)c12 [Compound 651] | < 30 nM |
| CCOc1ncc(-c2cc(NC[C@@H](C)c3ccc(F)c4c(C(=O)NC)ccnc34)ncn2)cn1 [Compound 652] | < 30 nM |
| [2H]C([2H])([2H])NC(=O)c1ccnc2c([C@H](C)CNc3cc(-c4cnc(C)nc4)ncn3)cccc12 [Compound 654] | < 30 nM |
| CNC(=O)c1ccnc2c([C@H](C)CNc3cc(-c4ccc(=O)n(C)c4)ncn3)cccc12 [Compound 655] | < 30 nM |
| CNC(=O)c1ccnc2c([C@H](C)CNc3cc(-c4ccn(C)c(=O)c4)ncn3)cccc12 [Compound 656] | < 30 nM |
| Cc1ncc(-c2cc(NC[C@@H](C)c3cccc4scnc34)ncn2)cn1 [Compound 658] | < 30 nM |
| Cc1ccc(-c2cc(NC[C@@H](C)c3ccnc4c3OCCN4)ncn2)cn1 [Compound 660] | < 30 nM |
| CNC(=O)c1ccnc2c([C@H](C)CNc3cc(-c4cnn(C)c4)ncn3)cccc12 [Compound 661] | < 30 nM |
| Cc1ncc(-c2cc(NC[C@@H](C)c3cccc4nccnc34)ncn2)cn1 [Compound 662] | < 30 nM |
| CNC(=O)c1ccnc2c([C@H](C)CNc3cc(-c4cnc(OC5COC5)nc4)ncn3)cccc12 [Compound 666] | < 30 nM |
| Cc1ncc(-c2cc(NC[C@@H](C)c3cccc4cc(F)cnc34)ncn2)cn1 [Compound 667] | < 30 nM |
| Cc1ncc(-c2cc(NC[C@@H](C)c3cccc4c(C(F)F)ccnc34)ncn2)cn1 [Compound 669] | < 30 nM |
| CNC(=O)c1ccnc2c([C@H](C)CNc3cc(-c4ccc(CN5CCN(C)CC5)nc4)ncn3)cccc12 [Compound 670] | < 30 nM |
| CNC(=O)c1ccnc2c([C@H](C)CNc3cc(-c4ccc(C)cc4)ncn3)cccc12 [Compound 671] | < 30 nM |
| CNC(=O)c1ccnc2c([C@H](C)CNc3cc(-c4ccc(C(=O)O)cc4)ncn3)cccc12 [Compound 672] | < 30 nM |
| CNC(=O)c1ccnc2c([C@H](C)CNc3cc(-c4ccc(C(=O)O)nc4)ncn3)cccc12 [Compound 673] | < 30 nM |

| SMILES | Ki |
| --- | --- |
| CNC(=O)c1ccnc2c([C@H](C)CNc3cc(-c4ccc(S(C)(=O)=O)cc4)ncn3)cccc12 [Compound 675] | < 30 nM |
| CCS(=O)(=O)c1ccc(-c2cc(NC[C@@H](C)c3cccc4c(C(=O)NC)ccnc34)ncn2)cc1 [Compound 676] | < 30 nM |
| CNC(=O)c1ccnc2c([C@H](C)CNc3cc(-c4ccc([S+](C)[O-])cc4)ncn3)cccc12 (stereo partly drawn) [Compound 677] | < 30 nM |
| CNC(=O)c1ccnc2c([C@H](C)CNc3cc(-c4ccc(N5CCOCC5)cc4)ncn3)cccc12 [Compound 678] | < 30 nM |
| CNC(=O)c1ccnc2c([C@H](C)CNc3cc(-c4ccc(C(C)(C)C#N)cc4)ncn3)cccc12 [Compound 679] | < 30 nM |
| CNC(=O)c1ccnc2c([C@H](C)CNc3cc(-c4ccc(NS(C)(=O)=O)cc4)ncn3)cccc12 [Compound 680] | < 30 nM |
| CNC(=O)c1ccnc2c([C@H](C)CNc3cc(-c4ccc(C5(C#N)CC5)cc4)ncn3)cccc12 [Compound 681] | < 30 nM |
| CNC(=O)c1ccnc2c([C@H](C)CNc3cc(-c4ccc(OC)cc4)ncn3)cccc12 [Compound 682] | < 30 nM |
| CNC(=O)c1ccnc2c([C@H](C)CNc3cc(-c4ccc(C#N)cc4)ncn3)cccc12 [Compound 683] | < 30 nM |
| CNC(=O)c1ccnc2c([C@H](C)CNc3cc(-c4ccc(F)cc4)ncn3)cccc12 [Compound 684] | < 30 nM |
| CNC(=O)c1ccnc2c([C@H](C)CNc3cc(-c4ccc(O)cc4)ncn3)cccc12 [Compound 685] | < 30 nM |
| CNC(=O)c1c(F)cnc2c([C@H](C)CNc3cc(-c4cccs4)ncn3)cccc12 [Compound 689] | < 30 nM |
| Cc1ncc(-c2cc(NC[C@@H](C)c3cccc4c(=O)n(C)cnc34)ncn2)cn1 [Compound 697] | < 30 nM |
| Cc1ccc(-c2cc(NC[C@@H](C)c3cccc4c(=O)n(C)cnc34)ncn2)cn1 [Compound 698] | < 30 nM |
| CNC(=O)c1ccnc2c([C@H](C)CNc3cc(-c4ccc(NC5CCN(Cc6ccccc6)C5)nc4)ncn3)cccc12 (stereo partly drawn) [Compound 701] | < 30 nM |
| CNC(=O)c1ccnc2c([C@H](C)CNc3cc(-c4ccc(NCCn5cccc5)nc4)ncn3)cccc12 [Compound 702] | < 30 nM |
| CNC(=O)c1ccnc2c([C@H](C)CNc3cc(-c4ccc(NCCN5CCCC5=O)nc4)ncn3)cccc12 [Compound 703] | < 30 nM |
| CCCNCCNc1ccc(-c2cc(NC[C@@H](C)c3cccc4c(C(=O)NC)ccnc34)ncn2)cn1 [Compound 705] | < 30 nM |

Next, values leading:

| Ki | SMILES |
| --- | --- |
| < 30 nM | CNC(=O)c1ccnc2c([C@H](C)CNc3cc(-c4ccc(C(C)=O)cc4)ncn3)cccc12 [Compound 590] |
| < 30 nM | C[C@H](CNc1cc(-c2cc(C(F)(F)F)c3ncccc3c2)ncn1)c1ccnc2c1OCC2 [Compound 591] |
| < 30 nM | CNC(=O)c1ccnc2c([C@H](C)CNc3cc(-c4cnc(OC)c(OC)c4)ncn3)cccc12 [Compound 592] |
| < 30 nM | C[C@H](CNc1cc(-c2ccc(N)nc2)ncn1)c1ccnc2c1OCC2 [Compound 594] |
| < 30 nM | COc1cc(-c2cc(NC[C@@H](C)c3ccnc4c3OCC4)ncn2)cnc1OC [Compound 595] |
| < 30 nM | CC(=O)c1ccc(-c2cc(NC[C@@H](C)c3ccnc4c3OCC4)ncn2)cc1 [Compound 596] |
| < 30 nM | C[C@H](CNc1cc(-c2cc(F)c3ncccc3c2)ncn1)c1ccnc2c1OCC2 [Compound 597] |
| < 30 nM | CNC(=O)c1ccnc2c([C@H](C)CNc3cc(-c4ccc(F)nc4)ncn3)cccc12 [Compound 603] |
| < 30 nM | [2H]c1nc(NC[C@@H](C)c2cccc3c(C(=O)NC)ccnc23)cc(-c2ccc(C)nc2)n1 [Compound 604] |
| < 30 nM | CNC(=O)c1ccnc2c([C@H](C)CNc3cc(-c4cncnc4)ncn3)cccc12 [Compound 605] |
| < 30 nM | CNC(=O)c1ccnc2c([C@H](C)CNc3cc(-c4cnc(OC)nc4)ncn3)cccc12 [Compound 606] |
| < 30 nM | CCOc1ncc(-c2cc(NC[C@@H](C)c3cccc4c(C(=O)NC)ccnc34)ncn2)cn1 [Compound 607] |
| < 30 nM | CNC(=O)c1ccnc2c([C@H](C)CNc3cc(-c4cnc(N)nc4)ncn3)cccc12 [Compound 608] |
| < 30 nM | CNC(=O)c1ccnc2c([C@H](C)CNc3cc(-c4cccnc4)ncn3)cccc12 [Compound 612] |
| < 30 nM | CNC(=O)c1ccnc2c([C@H](C)CNc3cc(-c4ccc(C#N)nc4)ncn3)cccc12 [Compound 613] |
| < 30 nM | CNC(=O)c1ccnc2c([C@H](C)CNc3cc(-c4ccc(N5CCN(C(C)=O)CC5)nc4)ncn3)cccc12 [Compound 614] |
| < 30 nM | CNC(=O)c1ccnc2c([C@H](C)CNc3cc(-c4ccc(OC)nc4)ncn3)cccc12 [Compound 615] |
| < 30 nM | CNC(=O)c1ccnc2c([C@H](C)CNc3cc(-c4cnc(NC(C)C)nc4)ncn3)cccc12 [Compound 618] |
| < 30 nM | CNC(=O)c1ccnc2c([C@H](C)CNc3cc(-c4cnc5c(cnn5C(C)(C)C)c4)ncn3)cccc12 [Compound 619] |

| Ki | SMILES |
| --- | --- |
| < 30 nM | CNC(=O)c1c(F)cnc2c([C@H](C)CNc3cc(-c4ccc(C)nc4)ncn3)cccc12 [Compound 620] |
| < 30 nM | CNC(=O)c1ccnc2c([C@H](C)CNc3cc(-c4cnc(C)nc4)ncn3)ccc(F)c12 [Compound 622] |
| < 30 nM | CNC(=O)c1ccnc2c([C@H](C)CNc3cc(-c4cnc(NC)nc4)ncn3)ccc(F)c12 [Compound 623] |
| < 30 nM | CNC(=O)c1ccnc2c([C@H](C)CNc3cc(-c4ccc(C)nc4)ncn3)ccnc12 [Compound 624] |
| < 30 nM | CNC(=O)c1ccnc2c([C@H](C)CNc3cc(-c4ccc(N(C)CC5CC5)nc4)ncn3)cccc12 [Compound 625] |
| < 30 nM | CC(=O)N1CCOc2c([C@H](C)CNc3cc(-c4cnc(C)nc4)ncn3)cccc21 [Compound 627] |
| < 30 nM | CNC(=O)c1ccnc2c([C@H](C)CNc3cc(-c4ccc(NC5CC5)nc4)ncn3)cccc12 [Compound 628] |
| < 30 nM | COc1cnc(N)cc1[C@H](C)CNc1cc(-c2ccc(C)nc2)ncn1 [Compound 630] |
| < 30 nM | CNC(=O)CNc1ccc(-c2cc(NC[C@@H](C)c3cccc4c(C(=O)NC)ccnc34)ncn2)cn1 [Compound 632] |
| < 30 nM | CNC(=O)c1ccnc2c([C@H](C)CNc3cc(-c4ccc(NCC(=O)N(C)C)nc4)ncn3)cccc12 [Compound 633] |
| < 30 nM | CNC(=O)c1ccnc2c([C@H](C)CNc3cc(-c4ccc(NC5CCN(C)CC5)nc4)ncn3)cccc12 [Compound 635] |
| < 30 nM | CNC(=O)c1c(F)cnc2c([C@H](C)CNc3cc(-c4cnc(C)nc4)ncn3)cccc12 [Compound 636] |
| < 30 nM | CNC(=O)c1ccnc2c([C@H](C)CNc3cc(-c4cnc(C)nc4)ncn3)cc(F)cc12 [Compound 637] |
| < 30 nM | CNC(=O)c1ccnc2c([C@H](C)CNc3cc(-c4ccc(C)nc4)ncn3)cc(F)c(F)c12 [Compound 638] |
| < 30 nM | CNC(=O)c1ccnc2c([C@H](C)CNc3cc(-c4ccc(N5CCOCC5)nc4)ncn3)cccc12 [Compound 641] |
| < 30 nM | COc1ccc(C(C)CNc2cc(-c3ccc(C)nc3)ncn2)c(N)n1 (stereo not drawn) [Compound 642] |
| < 30 nM | CNC(=O)c1ccnc2c([C@H](C)CNc3cc(-c4ccc(NCC5CC5)nc4)ncn3)cccc12 [Compound 644] |
| < 30 nM | CNC(=O)c1c(F)cnc2c([C@H](C)CNc3cc(-c4cnc(C)nc4)ncn3)ccc(F)c12 [Compound 645] |
| < 30 nM | Cc1ccc(-c2cc(NCC(C)c3ccnc4c3OCCN4)ncn2)cn1 (stereo not drawn) [Compound 648] |
